The record followed here is publication PMC8708875 (Pharmaceutics, 2021).

Common to all, as to type: cell-based, mouse
Experiment [1] deals with differentiated C2C12 myotubes. In words: qPCR gene expression in differentiated C2C12 myotubes. Particulars: Ric peptides 100 µM, insulin positive control, qPCR normalised to GAPDH, control = 1, mean ± SEM. Here is the method:
C2C12 cells were used as a well-described model of skeletal muscle to evaluate the effect of peptides in gene expression, cell signaling, and glucose uptake. These cells were kindly provided by Prof. Patricia Brum, School of Physical Education and Prof. Anselmo Moriscot, Biomedical Science Institute, University of São Paulo, São Paulo, Brazil. C2C12 cells were cultured and maintained in high glucose Dulbecco's modified Eagle's medium (DMEM; Thermo Fisher Scientific, São Paulo, SP, Brazil) supplemented with 10% fetal bovine serum (FBS), 100 U/mL penicillin, and […] streptomycin in a humidified atmosphere of 5% CO2 at 37 °C. The cells were used in low pass (between passages 2 and 4) for all experiments to maintain the potential for differentiation of cultures. Cells grown to approximately 70% confluence in T75 culture flasks were treated with trypsin and seeded in various P100 culture dishes. Cells were then cultured in the presence of 10% FBS until they reach about 90% confluence, at which point the medium was replaced with DMEM containing 2% horse serum for the induction of differentiation in myotubes. During this time, the fused myoblasts formed elongated, multi-nucleated myotubes, and within 7 days more than 95% of the cells already fused into myotubes. Cultures of C2C12 were treated with phosphate buffer saline (137 mM NaCl, 2.7 mM KCl, 10 mM Na2HPO4, and 1.8 mM KH2PO4, pH 7.4; PBS; control), insulin or […], for the indicated period of time. From these treatments the cells were processed for molecular analyses. Real-time PCR (qPCR) experiments were performed to evaluate the mRNA expression levels, at basal and under stimulus, for peroxisome proliferator activator receptor gamma (PPARγ), peroxisome proliferator activator receptor […] responsive element binding protein 1 (Creb1), aldolase A, fructose-bisphosphate (ALDOA), cytochrome c oxidase subunit IV isoform 1 (Cox4i1), phosphoglycerate mutase 2 (PGAM2), troponin I, skeletal, fast 2 (TNNI2), […] (TNNT3), small muscle protein X-linked (SMPX), myosin, […] (MYH1), insulin-growth factor 1 (IGF1), Glucose transporter 4 (GLUT4), and lipoprotein lipase (LPL). Primers sequences are described in Supplementary Materials (Table S1). Cells were homogenized and total RNA extracted using Trizol according to the manufacturer's instructions (TRIzol, Life Technologies, Rockville, MD, USA). After extraction of RNA, all samples were purified and treated with DNAse using RNeasy Mini Kit (Qiagen, Foster City, CA, USA). The integrity of the RNA was verified by 1% agarose gel electrophoresis stained with ethidium bromide and visualized in ultraviolet light. […] The standard curves for all the primers used herein were previously constructed to determine the efficiency of the amplification of the target and reference genes. Quantitative PCRs were performed using the Prism 7900 sequence detection system (Applied Biosystems, Foster City, CA, USA) with 100 nM primer and 20 ng cDNA. The expression of mRNA targets was normalized by expression of gene glyceraldehyde 3-phosphate dehydrogenase (GAPDH) or hipoxantina-guanina fosforibosiltransferase (HPRT) and expressed as relative values using the 2 DDCt method. The expression levels of target genes were normalized with housekeeping genes GAPDH or HPRT, and alterations were expressed relative to control unstimulated cells. […] Therefore, the possible effects of Ric1-Ric4 (100 μM) on gene expression were evaluated. For all these experiments, insulin was used as “gold standard”/positive control, and GAPDH expression was used as normalization control (Table 2, Control “1”/100%). Relative to GAPDH expression, insulin increased the expression of all genes evaluated (Table 1). […]

Experiment [2] has as its system differentiated C2C12 cells. In words: Glucose uptake in C2C12 myotubes. To be noted: peptides 100 µM, insulin 100 nM; 30 min, 37 °C; 3H-glucose (1 µCi/mL) or 2-NBDG (80 µM).
Experiment [3] concerns epididymal adipose tissue explants. In words: Glucose uptake in epididymal adipose tissue explants. Particulars: Ric4 100 µM, insulin 100 nM; 3H-deoxyglucose 1 µCi/mL, Krebs-Ringer bicarbonate buffer, 37 °C. Here is the method:
Glucose uptake was evaluated in adipose tissue explants from mice bearing or not deletion of insulin receptor in adipocytes essentially as previously described. Briefly, explants of epididymal adipose tissue (20–25 mg) were incubated in 1 mL of Krebs–Ringer bicarbonate buffer (in mmol/L): 118 NaCl, 4.8 KCl, 1.25 CaCl2, 1.2 KH2PO4, 1.2 MgSO4, 25 NaHCO3, and 5.5 glucose and 1 μCi/mL of ^3H-deoxyglucose (New England Radiochemicals, Boston, MA, USA) supplemented with 2% fatty acid-free BSA (Sigma, Oakville, ON, Canada), 7.4. Vials were incubated at 37 °C for […] in the presence or absence of insulin (100 nM) or Ric4 peptide (100 µM). After 30 min, explants were extensively washed and processed to evaluate the uptake of ^3H deoxyglucose as previously described.
Figure 4 Glucose uptake and GLUT4 translocation induced by Ric4 in C2C12 cells. C2C12 cells were previously incubated in serum-free and glucose-free DMEM medium, then incubated with HEPES buffer for 30 min and then incubated for a further 30 min in glucose-uptake buffer containing vehicle, Ric4 (100 µM), or insulin (100 nM) in the presence of ^3H-glucose (1 µCi/mL) or 2-NBDG (80 µM). After incubations cells were lysed with 50 μL of 0.1 N NaOH and fluorescence or radiation of aliquots from the lysate were measured (A). Epididymal adipose tissue explants (20–25 mg) were incubated in Krebs–Ringer bicarbonate buffer containing glucose 5.5 mM and 1 μCi/mL of ^3H-deoxyglucose supplemented with 2% fatty acid-free for 30 min at 37 °C in the presence or absence of insulin (100 nM) or Ric4 (100 µM). The explants were processed to evaluate the uptake of ^3H-deoxyglucose (B). Myotubes were previously incubated in serum-free and glucose-free DMEM medium and then treated with control vehicle PBS or Ric4 (100 µM) for 30 min. Proteins from subcellular fractions: N/ER (C), microsomal (D), plasma membrane (E), were isolated and the expression Glut4 was analyzed by Western blot. Images were quantified using ImageJ 1.49 software. The statistical comparisons were performed using analysis of variance (ANOVA), followed by ad-hoc Tukey’s test using GraphPad Prism software * p < 0.05; # p < 0.05; **** p < 0.0001.

Experiment [4] has as its system differentiated C2C12 myotubes. Briefly: qPCR gene expression in differentiated C2C12 myotubes. To be noted: Ric peptides 100 µM, insulin positive control, qPCR normalised to GAPDH, control = 1, mean ± SEM. The source holds these as a separate data set.

Turning to “LASVSTVLTSKYR [Ric4, intracellular peptide derived from hemoglobin alpha subunit, last 13 C-terminal amino acids]”, in experiment [1], the “relative expression of Aldolase A, fructose-bisphosphate (ALDOA)” value stood at 4.22 ± 0.74; the “relative expression of Cytochrome c oxidase subunit IV isoform 1 (Cox4i1)” value was 1.41 ± 1.12; the “relative expression of Peroxisome proliferator activator receptor gamma (PPARγ)” value is given as 1.21 ± 1.02; the “relative expression of Phosphoglycerate mutase 2 (PGAM2)” value worked out at 2.65 ± 0.87. Besides, in experiment [1], the “relative expression of Small muscle protein X-linked (SMPX)” value is 3.21 ± 0.99; the “relative expression of Troponin I, skeletal, fast 2 (TNNI2)” value is listed as 3.14 ± 0.65; the “relative expression of Troponin I, skeletal, fast 3 (TNNT3)” value stood at 2.38 ± 0.72; the “relative expression of cAMP responsive element binding protein 1 (Creb1)” value is 1.03 ± 0.85. The “glucose uptake in differentiated C2C12 cells” value in experiment [2] is on record as “stimulate glucose uptake”. Further, in experiment [3], the “glucose uptake in adipose tissue explants from C57BL6N WT mice” value was “stimulate glucose uptake” and the “glucose uptake in adipose tissue explants from conditional knockout mice depleted from insulin receptor” value is “neither insulin nor Ric4 were capable of inducing glucose uptake”. Further, the “relative expression of Myosin, light chain 1 (MYL1)” value in experiment [4] was determined as 3.58 ± 1.07.

For Insulin, in experiment [1], the “relative expression of Aldolase A, fructose-bisphosphate (ALDOA)” value was 7.65 ± 0.96; the “relative expression of Cytochrome c oxidase subunit IV isoform 1 (Cox4i1)” value was 6.71 ± 1.24; the “relative expression of Peroxisome proliferator activator receptor gamma (PPARγ)” value was 6.98 ± 1.23; the “relative expression of Phosphoglycerate mutase 2 (PGAM2)” value amounted to 8.26 ± 0.99. In experiment [1], the “relative expression of Small muscle protein X-linked (SMPX)” value was determined as 5.96 ± 0.98; the “relative expression of Troponin I, skeletal, fast 2 (TNNI2)” value is 6.36 ± 1.13; the “relative expression of Troponin I, skeletal, fast 3 (TNNT3)” value worked out at 6.22 ± 0.98; the “relative expression of cAMP responsive element binding protein 1 (Creb1)” value worked out at 6.48 ± 1.08. In addition, in experiment [2], the “glucose uptake in differentiated C2C12 cells” value is given as “stimulate glucose uptake”. In addition, in experiment [3], the “glucose uptake in adipose tissue explants from C57BL6N WT mice” value is “stimulate glucose uptake” and the “glucose uptake in adipose tissue explants from conditional knockout mice depleted from insulin receptor” value is recorded as “neither insulin nor Ric4 were capable of inducing glucose uptake”. For the same substance, the “relative expression of Myosin, light chain 1 (MYL1)” value in experiment [4] is reported as 6.18 ± 1.07.
